From the supplement of paper PMC10307832

Experiments:
Test in all cases: relative viability (nuclei count vs DMSO), 5 days (fraction); higher = more cells survive
[1] = compound: Cc1ccc(-n2nc(C(C)(C)C)cc2NC(=O)Nc2ccc(OCCN3CCOCC3)c3ccccc23)cc1 [Doramapimod] + COc1cccc2cc(-c3nc([C@H]4CC[C@H](C(=O)O)CC4)n4ncnc(N)c34)[nH]c12 [OSI-027] (partner 0.5 µM)
In short: (§1)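 Lung cancer cell lines, seeded in 1536-well plates, were treated the following day by pin tool with a single drug or with five library-drug doses (not always all listed) in √10 steps on top of a fixed anchor-drug dose. Cells were fixed and nuclei stained in one step after 5 days, and nuclei were counted. Relative viability is the nuclei count for treated wells divided by that for vehicle wells, reported as medians of duplicate plates.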

[2] = compound: Cn1c(Nc2ccc(C(F)(F)F)cc2)nc2cc(Oc3ccnc(-c4ncc(C(F)(F)F)[nH]4)c3)ccc21 [RAF265] + CC(=O)c1c(C)c2cnc(Nc3ccc(N4CCNCC4)cn3)nc2n(C2CCCC2)c1=O [Palbociclib] (partner 0.5 µM)
In short: as §1

[3] = compound: Cn1c(Nc2ccc(C(F)(F)F)cc2)nc2cc(Oc3ccnc(-c4ncc(C(F)(F)F)[nH]4)c3)ccc21 [RAF265] + COc1cc2c(Oc3ccc(NC(=O)C4(C(=O)Nc5ccc(F)cc5)CC4)cc3F)ccnc2cc1OCCCN1CCOCC1 [Foretinib] (partner 0.25 µM)
In short: as §1

[4] = compound: Cn1c(Nc2ccc(C(F)(F)F)cc2)nc2cc(Oc3ccnc(-c4ncc(C(F)(F)F)[nH]4)c3)ccc21 [RAF265] + CS(=O)(=O)N1CCN(Cc2cc3nc(-c4cccc5[nH]ncc45)nc(N4CCOCC4)c3s2)CC1 [Pictilisib] (partner 1 µM)
In short: as §1

| Cell Line | relative viability ([1]; first compound 0.02 µM) | relative viability ([1]; first compound 0.06325 µM) | relative viability ([1]; first compound 0.2 µM) | relative viability ([1]; first compound 0.6325 µM) | relative viability ([1]; first compound 2 µM) | relative viability ([2]; first compound 0.01 µM) | relative viability ([2]; first compound 0.03162 µM) | relative viability ([2]; first compound 0.1 µM) | relative viability ([2]; first compound 0.3162 µM) | relative viability ([2]; first compound 1 µM) | relative viability ([3]; first compound 0.01 µM) | relative viability ([3]; first compound 0.03162 µM) | relative viability ([3]; first compound 0.1 µM) | relative viability ([3]; first compound 0.3162 µM) | relative viability ([3]; first compound 1 µM) | relative viability ([4]; first compound 0.01 µM) | relative viability ([4]; first compound 0.03162 µM) | relative viability ([4]; first compound 0.1 µM) | relative viability ([4]; first compound 0.3162 µM) | relative viability ([4]; first compound 1 µM) |
| --- | --- | --- | --- | --- | --- | --- | --- | --- | --- | --- | --- | --- | --- | --- | --- | --- | --- | --- | --- | --- |
| NCI-H661 | 0.71 | 0.732 | 0.791 | 0.799 | 0.629 | 0.457 | 0.408 | 0.337 | 0.326 | 0.344 | 1.05 | 0.944 | 0.685 | 0.636 | 0.521 | 0.438 | 0.498 | 0.383 | 0.288 | 0.283 |
| NCI-H727 | 0.497 | 0.556 | 0.688 | 0.472 | 0.57 | 0.684 | 0.626 | 0.692 | 0.611 | 0.602 | 0.879 | 0.895 | 0.98 | 0.744 | 0.454 | 0.546 | 0.302 | 0.325 | 0.252 | 0.22 |
| NCI-H838 | 0.383 | 0.364 | 0.376 | 0.369 | 0.326 | 0.203 | 0.222 | 0.193 | 0.176 | 0.154 | 1.06 | 1.07 | 1.01 | 1.07 | 0.951 | 0.53 | 0.444 | 0.397 | 0.362 | 0.342 |
| NCI-H1355 | 0.412 | 0.409 | 0.381 | 0.361 | 0.341 | 0.449 | 0.364 | 0.328 | 0.248 | 0.181 | 0.65 | 0.923 | 0.823 | 0.464 | 0.38 | 0.498 | 0.409 | 0.322 | 0.214 | 0.204 |
| NCI-H1395 | 0.617 | 0.728 | 0.702 | 0.826 | 0.523 | 0.634 | 0.56 | 0.567 | 0.597 | 0.437 | 0.915 | 1.02 | 0.972 | 0.972 | 0.697 | 0.632 | 0.574 | 0.568 | 0.449 | 0.507 |
| NCI-H1437 | 0.953 | 0.883 | 0.852 | 0.938 | 0.866 | 0.318 | 0.315 | 0.305 | 0.366 | 0.306 | 1.22 | 1.28 | 1.28 | 1.33 | 1.31 | 0.613 | 0.428 | 0.455 | 0.475 | 0.274 |
| NCI-H1650 | 0.692 | 0.689 | 0.713 | 0.76 | 0.459 | 0.385 | 0.319 | 0.418 | 0.278 | 0.277 | 1.01 | 1.29 | 1.35 | 1.17 | 0.953 | 0.642 | 0.528 | 0.755 | 0.348 | 0.583 |
| NCI-H1651 | 0.751 | 0.701 | 0.727 | 0.729 | 0.656 | 0.508 | 0.517 | 0.504 | 0.479 | 0.47 | 0.86 | 0.808 | 0.75 | 0.844 | 0.584 | 0.523 | 0.539 | 0.433 | 0.397 | 0.463 |
| NCI-H1666 | 0.974 | 0.852 | 0.846 | 0.787 | 0.772 | 0.612 | 0.577 | 0.595 | 0.663 | 0.585 | 1.11 | 0.936 | 0.985 | 1.01 | 0.81 | 0.583 | 0.453 | 0.329 | 0.426 | 0.249 |
| NCI-H1734 | 0.55 | 0.508 | 0.537 | 0.589 | 0.448 | 0.384 | 0.319 | 0.324 | 0.286 | 0.221 | 0.858 | 0.701 | 0.627 | 0.647 | 0.454 | 0.479 | 0.334 | 0.438 | 0.276 | 0.228 |
| NCI-H1755 | 0.709 | 0.659 | 0.727 | 0.669 | 0.586 | 0.385 | 0.445 | 0.462 | 0.414 | 0.309 | 0.951 | 0.884 | 0.926 | 0.727 | 0.568 | 0.47 | 0.287 | 0.264 | 0.238 | 0.148 |
| NCI-H1793 | 0.238 | 0.262 | 0.278 | 0.36 | 0.242 | 0.309 | 0.274 | 0.218 | 0.213 | 0.195 | 0.632 | 0.616 | 0.624 | – | 0.261 | 0.296 | 0.267 | 0.447 | 0.216 | 0.179 |
| NCI-H1915 | 0.591 | 0.622 | 0.671 | 0.606 | 0.561 | 0.525 | 0.435 | 0.438 | 0.236 | 0.147 | 1.09 | 1.05 | 0.869 | 0.348 | 0.306 | 0.965 | 0.914 | 0.705 | 0.37 | 0.247 |
| NCI-H1944 | 0.365 | 0.451 | 0.352 | 0.492 | 0.286 | 0.356 | 0.367 | 0.291 | 0.261 | 0.185 | 0.939 | 0.913 | 0.906 | 0.762 | 0.461 | 0.339 | 0.343 | 0.334 | 0.293 | 0.258 |
| NCI-H1975 | 0.703 | 0.741 | 0.802 | 0.792 | 0.663 | 0.609 | 0.396 | 0.263 | 0.184 | 0.182 | 0.88 | 0.74 | 0.639 | 0.383 | 0.333 | 0.287 | 0.213 | 0.162 | 0.155 | 0.103 |
| NCI-H1993 | 0.573 | 0.566 | 0.59 | 0.495 | 0.522 | 0.584 | 0.595 | 0.661 | 0.575 | 0.507 | 0.86 | 0.729 | 0.783 | 0.777 | 0.575 | 0.888 | 0.805 | 0.934 | 0.824 | 0.763 |
